Read-outs that look alike come from different tables or passages of the source.
Assays:
[1] = tested on: genotype 1b (Con-1) HCV replicon; assay: HCV replicon luciferase assay; type: cell-based; conditions: Hepatitis C virus, 72 h, Huh-7 cells, genotype 1b replicon, Renilla luciferase, 3 days incubation
Method: Cell lines. The cell lines used to evaluate compounds consist of a human hepatocyte derived cell line (Huh-7) that constitutively expresses a genotype 1b (Con-1) HCV replicon or a genotype 1b (Con-1) HCV replicon with an asparagine replacing the cysteine at amino acid 316, or a genotype 2a (JFH-1) replicon, containing a Renilla luciferase reporter gene. These cells were maintained in Dulbecco's modified Eagle medium (DMEM) containing 10% FBS, 100 U/mL penicillin/streptomycin and 1.0 mg/mL G418.
HCV replicon luciferase assay. To evaluate compound efficacy, titrated compounds were transferred to sterile 384-well tissue culture treated plates, and the plates were seeded with HCV replicon cells (50 μL at a density of 2.4×10^3 cells/well) in DMEM containing 4% FBS (final DMSO concentration at 0.5%). After 3 days incubation at 37° C., cells were analyzed for Renilla Luciferase activity using the EnduRen substrate (Promega cat #E6485) according to the manufacturer's directions. Briefly, the EnduRen substrate was diluted in DMEM and then added to the plates to a final concentration of 7.5 μM. The plates were incubated for at least 1 h at 37° C. then read on a Viewlux Imager (PerkinElmer) using a luminescence program. The 50% effective concentration (EC50) was calculated using the four-parameter logistic formula noted above.
Compound EC50 data is expressed as A:<100 nM; B=100-1000 nM; C>1000 nM).

HCV = conditions: combination therapy; cited from earlier work
[2] = extended dosing of the combination regimens; cited from earlier work

| Compound | EC50 ([1]; read-out: EC50 lb (class)) | other results |
| --- | --- | --- |
| CNC(=O)c1c(-c2ccc(-n3cnnc3C)cc2)oc2nc(CCC(F)(F)F)c(-c3cccc(C(=O)NC(C)(C)C)c3)cc12 [Compound 3003] | > 1 µM | EC50 ([1]; read-out: EC50 (uM) lb): 3.32 µM |
| CNC(=O)c1c(-c2ccc(-n3ccnc3)cc2)oc2nc(CCC(F)(F)F)c(-c3cccc(C(=O)NC(C)(C)C)c3)cc12 [Compound 3006] | 0.1 to 1 µM | – |
| alpha-interferon and ribavirin | – | sustained efficacy, share of patients (HCV): 40% |
| CCN(c1cc2oc(-c3ccc(-n4ccnn4)cc3)c(C(=O)NC)c2cc1-c1cccc(C(=O)NC(C)(C)C)c1)S(C)(=O)=O [Compound 1002] | < 0.1 µM | EC50 ([1]; read-out: EC50 (uM) lb): 0.069 µM |
| CNC(=O)c1c(-c2ccc(-n3cc(C(F)(F)F)cn3)cc2)oc2nc(-n3cc(C(F)(F)F)cn3)c(-c3cccc(C(=O)NC(C)(C)C)c3)cc12 [Compound 2002] | > 1 µM | – |
| CNC(=O)c1c(-c2ccc(-n3ncnc3C)cc2)oc2nc(CCC(F)(F)F)c(-c3cccc(C(=O)NC(C)(C)C)c3)cc12 [Compound 3002] | > 1 µM | – |
| CNC(=O)c1c(-c2ccc(-c3ncccc3O)cc2)oc2nc(CCC(F)(F)F)c(-c3cccc(C(=O)NC(C)(C)C)c3)cc12 [Compound 4001] | 0.1 to 1 µM | – |
| CNC(=O)c1c(-c2ccc(-n3ccc(C(F)(F)F)n3)cc2)oc2nc(-n3ccc(C(F)(F)F)n3)c(-c3cccc(C(=O)NC(C)(C)C)c3)cc12 [Compound 2001] | 0.1 to 1 µM | – |
| CNC(=O)c1c(-c2ccc(-n3cncn3)cc2)oc2nc(CCC(F)(F)F)c(-c3cccc(C(=O)NC(C)(C)C)c3)cc12 [Compound 3007] | 0.1 to 1 µM | – |
| CNC(=O)c1c(-c2ccc(-n3cnc(C)c3)cc2)oc2nc(CCC(F)(F)F)c(-c3cccc(C(=O)NC(C)(C)C)c3)cc12 [Compound 3009] | > 1 µM | – |
| CNC(=O)c1c(-c2ccc(-n3ccnn3)cc2)oc2nc(CCC(F)(F)F)c(-c3cccc(C(=O)NC(C)(C)C)c3)cc12 [Compound 3001] | < 0.1 µM | EC50 ([1]; read-out: EC50 (uM) lb): 0.035 µM |
| CNC(=O)c1c(-c2ccc(-n3cc(C)cn3)cc2)oc2nc(CCC(F)(F)F)c(-c3cccc(C(=O)NC(C)(C)C)c3)cc12 [Compound 3008] | > 1 µM | – |
| CCN(c1cc2oc(-c3ccc(-n4cccn4)cc3)c(C(=O)NC)c2cc1-c1cccc(C(=O)NC(C)(C)C)c1)S(C)(=O)=O [Compound 1001] | < 0.1 µM | EC50 ([1]; read-out: EC50 (uM) lb): 0.017 µM |
| CNC(=O)c1c(-c2ccc(-n3ccc(C)n3)cc2)oc2nc(CCC(F)(F)F)c(-c3cccc(C(=O)NC(C)(C)C)c3)cc12 [Compound 3010] | 0.1 to 1 µM | EC50 ([1]; read-out: EC50 (uM) lb): 0.28 µM |
| CNC(=O)c1c(-c2ccc(F)cc2)oc2cc(N(CCO)S(C)(=O)=O)c(C3CC3)cc12 [HCV-796] | – | hepatic toxicity [2]: hepatic toxicity observed |
| CNC(=O)c1c(-c2ccc(-n3cnc(C)n3)cc2)oc2nc(CCC(F)(F)F)c(-c3cccc(C(=O)NC(C)(C)C)c3)cc12 [Compound 3004] | 0.1 to 1 µM | – |
| CCN(c1cc2oc(-c3ccc(-n4nccn4)cc3)c(C(=O)NC)c2cc1-c1cccc(C(=O)NC(C)(C)C)c1)S(C)(=O)=O [Compound 1003] | < 0.1 µM | – |

From patent publication US9840511B2, “2-(aryl or heteroaryl-)phenyl (AZA)benzofuran compounds for the treatment of hepatitis C” (BRISTOL-MYERS SQUIBB COMPANY, priority 2014, dated 2017)
